Data: ChEMBL document CHEMBL1201862, “PubChem BioAssay data set” (2004)
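The compound was tested at five concentrations on cells cultured in 96-well plates, with a 48-hour exposure period. Here, GI50 denotes the concentration required for 50% inhibition of growth.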 The source made the active and inactive calls. No stated cut-off is given here; in the data, active = GI50 up to about 1.1 µM and inactive = higher.

What was measured:
Assay in all cases: NCI tumour cell line growth inhibition, 48 h
HCT-116 = tested on: HCT-116
COLO 205 = tested on: COLO 205
MCF7 = tested on: MCF7
UACC-257 = tested on: UACC-257
SF-539 = tested on: SF-539
UO-31 = tested on: UO-31
SW-620 = tested on: SW-620
CAKI-1 = tested on: CAKI-1
HOP-62 = tested on: HOP-62
A498 = tested on: A498
NCI-H460 = tested on: NCI-H460
EKVX = tested on: EKVX
BT-549 = tested on: BT-549
NCI/ADR-RES = tested on: NCI/ADR-RES
HCT-15 = tested on: HCT-15
NCI-H23 = tested on: NCI-H23
M14 = tested on: M14
NCI-H226 = tested on: NCI-H226
786-0 = tested on: 786-0
SK-OV-3 = tested on: SK-OV-3
A549 = tested on: A549
OVCAR-3 = tested on: OVCAR-3
SNB-75 = tested on: SNB-75
KM12 = tested on: KM12
SF-268 = tested on: SF-268
SK-MEL-28 = tested on: SK-MEL-28
OVCAR-8 = tested on: OVCAR-8
OVCAR-4 = tested on: OVCAR-4
HOP-92 = tested on: HOP-92
HCC 2998 = tested on: HCC 2998
TK-10 = tested on: TK-10
SN12C = tested on: SN12C
MOLT-4 = tested on: MOLT-4
HL-60 = tested on: HL-60
U-251 = tested on: U-251
OVCAR-5 = tested on: OVCAR-5
HT-29 = tested on: HT-29
SNB-19 = tested on: SNB-19
IGROV-1 = tested on: IGROV-1
DU-145 = tested on: DU-145
SK-MEL-2 = tested on: SK-MEL-2
ACHN = tested on: ACHN
LOX IMVI = tested on: LOX IMVI
MDA-MB-231 = tested on: MDA-MB-231
SK-MEL-5 = tested on: SK-MEL-5
MDA-MB-435 = tested on: MDA-MB-435
T47D = tested on: T47D
SF-295 = tested on: SF-295
RXF 393 = tested on: RXF 393
UACC-62 = tested on: UACC-62
Hs-578T = tested on: Hs-578T
NCI-H522 = tested on: NCI-H522
CCRF-CEM = tested on: CCRF-CEM
K562 = tested on: K562
PC-3 = tested on: PC-3

`NC(=O)C(=CN1C(=O)CC(=O)NC1=S)C(N)=O` was tested, and the GI50 (HCT-116) was > 100 µM (inactive), the GI50 (COLO 205) was > 100 µM (inactive) and the GI50 (MCF7) was > 100 µM (inactive). The GI50 (UACC-257) was > 100 µM (inactive), the GI50 (SF-539) was > 100 µM (inactive) and the GI50 (UO-31) was > 100 µM (inactive). For the same compound, the GI50 (SW-620) was > 100 µM (inactive), the GI50 (CAKI-1) was > 100 µM (inactive) and the GI50 (HOP-62) was > 100 µM (inactive). For the same compound, the GI50 (A498) was > 100 µM (inactive), the GI50 (NCI-H460) was > 100 µM (inactive) and the GI50 (EKVX) was > 100 µM (inactive). For the same compound, the GI50 (BT-549) was > 100 µM (inactive), the GI50 (NCI/ADR-RES) was > 100 µM (inactive) and the GI50 (HCT-15) was greater than 100 µM. For the same compound, the GI50 (NCI-H23) was > 100 µM (inactive), the GI50 (M14) was > 100 µM (inactive) and the GI50 (NCI-H226) was > 100 µM (inactive). The GI50 (786-0) was > 100 µM (inactive), the GI50 (SK-OV-3) was > 100 µM (inactive) and the GI50 (A549) was > 100 µM (inactive). For the same compound, the GI50 (OVCAR-3) was > 100 µM (inactive), the GI50 (SNB-75) was > 100 µM (inactive) and the GI50 (KM12) was > 100 µM (inactive). For the same compound, the GI50 (SF-268) was > 100 µM (inactive), the GI50 (SK-MEL-28) was > 100 µM (inactive) and the GI50 (OVCAR-8) was > 100 µM (inactive). For the same compound, the GI50 (OVCAR-4) was > 100 µM (inactive), the GI50 (HOP-92) was > 100 µM (inactive) and the GI50 (HCC 2998) was > 100 µM (inactive). The GI50 (TK-10) was > 100 µM (inactive), the GI50 (SN12C) was > 100 µM (inactive) and the GI50 (MOLT-4) was > 100 µM (inactive). The GI50 (HL-60) was > 100 µM (inactive), the GI50 (U-251) was > 100 µM (inactive) and the GI50 (OVCAR-5) was > 100 µM (inactive). The GI50 (HT-29) was > 100 µM (inactive), the GI50 (SNB-19) was > 100 µM (inactive) and the GI50 (IGROV-1) was > 100 µM (inactive). The GI50 (DU-145) was > 100 µM (inactive), the GI50 (SK-MEL-2) was > 100 µM (inactive) and the GI50 (ACHN) was > 100 µM (inactive). The GI50 (LOX IMVI) was > 100 µM (inactive), the GI50 (MDA-MB-231) was > 100 µM (inactive) and the GI50 (SK-MEL-5) was > 100 µM (inactive). For the same compound, the GI50 (MDA-MB-435) was > 100 µM (inactive), the GI50 (T47D) was > 100 µM (inactive) and the GI50 (SF-295) was > 100 µM (inactive). The GI50 (RXF 393) was > 100 µM (inactive).
`CC1CC[P+](c2ccccc2)(c2ccccc2)c2c1ccc1ccccc21` (stereo not drawn) was tested, and the GI50 (UACC-62) was 4.13 µM (inactive), the GI50 (HCT-116) was 2.67 µM (inactive) and the GI50 (MCF7) was 2.14 µM (inactive). For the same compound, the GI50 (UACC-257) was 0.607 µM (active), the GI50 (SF-539) was 4.82 µM (inactive) and the GI50 (UO-31) was 27 µM (inactive). The GI50 (CAKI-1) was 7.85 µM (inactive), the GI50 (Hs-578T) was 1.79 µM (inactive) and the GI50 (NCI-H460) was 2.64 µM (inactive). For the same compound, the GI50 (BT-549) was 1.23 µM (inactive), the GI50 (HCT-15) was 40.5 µM and the GI50 (NCI-H23) was 2.4 µM (inactive). The GI50 (M14) was 5.89 µM (inactive), the GI50 (A549) was 9.1 µM (inactive) and the GI50 (SNB-75) was 1.79 µM (inactive). For the same compound, the GI50 (KM12) was 3.13 µM (inactive), the GI50 (SF-268) was 7.89 µM (inactive) and the GI50 (OVCAR-8) was 2.44 µM (inactive). For the same compound, the GI50 (NCI-H522) was 1.16 µM (inactive), the GI50 (OVCAR-4) was 12.6 µM (inactive) and the GI50 (HOP-92) was 1.15 µM (inactive). For the same compound, the GI50 (HCC 2998) was 6.12 µM (inactive), the GI50 (SN12C) was 3.94 µM (inactive) and the GI50 (MOLT-4) was 6.75 µM (inactive). The GI50 (HL-60) was 2.51 µM (inactive), the GI50 (OVCAR-5) was 5.81 µM (inactive) and the GI50 (HT-29) was 2.32 µM (inactive). For the same compound, the GI50 (CCRF-CEM) was 4.3 µM (inactive), the GI50 (SNB-19) was 4.07 µM (inactive) and the GI50 (K562) was 0.942 µM (active). For the same compound, the GI50 (SK-MEL-2) was 1.79 µM (inactive), the GI50 (ACHN) was 14 µM (inactive) and the GI50 (LOX IMVI) was 2.25 µM (inactive). For the same compound, the GI50 (SK-MEL-5) was 1.34 µM (inactive), the GI50 (PC-3) was 1.51 µM (inactive) and the GI50 (MDA-MB-435) was 2.78 µM (inactive). For the same compound, the GI50 (T47D) was 0.698 µM (active), the GI50 (SF-295) was 3.33 µM (inactive) and the GI50 (RXF 393) was 9.77 µM (inactive).
